# Conditions: not given
SMILES,log10 Koc (L/kg),log10 vapour pressure (mmHg),melting point [°C],boiling point [°C],ready biodegradability,log10 Henry constant (atm·m³/mol)
CC(Oc1ccc(Cl)cc1Cl)C(=O)O (stereo not drawn),2.23,-6.73,122,–,–,–
CC(O)C(O)CO (stereo not drawn),–,-2.47,–,–,–,–
Oc1c(Cl)c(Cl)cc(Cl)c1Cl,–,–,115,–,–,–
CC(C)CN=C=O,–,–,–,106,–,–
CCCCSSCCCC,–,-1.2,–,–,–,–
CCCc1ccco1,–,–,–,115,–,–
c1ccc2c(c1)Oc1ccccc1O2,–,-3.38,122,–,–,–
CC(=O)OCCCOC(C)=O,–,–,–,210,–,–
CC(C)(C)Oc1ccccc1,–,–,-24,186,–,–
C=C[C@@]1(C)C=C2CC[C@@H]3[C@](C)(CCC[C@@]3(C)C(=O)O)[C@H]2CC1,–,–,218,–,–,–
C=CC(F)(F)C(F)(F)C(F)(F)C(F)(F)C(F)(F)C(F)(F)F,–,–,–,104,–,–
CC(=O)Oc1cccc2cc3cccc(OC(C)=O)c3c(OC(C)=O)c12,–,–,–,–,not readily biodegradable,–
C1CSCS1,–,–,-50,175,–,–
CCCCCCCCCCOC(=O)CCCCCCCCC,–,–,9.7,–,–,–
CCCSP(=O)(OCC)Oc1cnn(-c2ccc(Cl)cc2)c1 (stereo not drawn),–,-7.92,–,–,–,–
CCCCCCc1ccc(O)cc1O,–,–,68,334,–,–
ClCCCI,–,–,–,171,–,–
CNc1ccc(C)cc1,–,–,–,210,–,–
CC1CCSC1 (stereo not drawn),–,–,–,139,–,–
C/C=C/CCC,–,–,-98,66.5,–,–
ClC=CCCl (mixture of isomers),1.67,–,-50,109,–,-2.62
CC1(C)C(=O)NC(=O)N1CO,–,–,100,–,–,–

SMILES,log10 Koc (L/kg),log10 vapour pressure (mmHg),melting point [°C],boiling point [°C],ready biodegradability,log10 Henry constant (atm·m³/mol)
O=C[C@H](O)[C@H](O)[C@H](O)CO,–,–,98.5,–,–,–
N=C(N)c1ccc(C=Cc2ccc(C(=N)N)cc2O)cc1,–,–,235,–,–,–
O=C(O)c1c(Br)c(O)c(O)c(O)c1Br,–,–,150,–,–,–
O=C(CCC(=O)OCc1ccccc1)OCc1ccccc1,–,–,49.5,–,–,–
CC1CCCC2(C)CCCCC12O (stereo not drawn),–,–,–,270,–,–
CCOC(=O)C#N,–,–,–,116,–,–
CCC(C)c1ccccc1OC(=O)NC (stereo not drawn),1.71,-3.85,31.5,–,not readily biodegradable,–
CC(C)=CCC[C@@H](C)C1=C(O)C(=O)C(C)=CC1=O,–,–,104,–,–,–
OC(CCN1CCCCC1)(c1ccccc1)c1ccccc1,–,–,120,–,–,–
Clc1cc(Cl)c(Cl)nc1Cl,–,–,90.5,250,–,–
O=[N+]([O-])c1cc(I)c(O)c(I)c1,–,–,157,–,–,–
C#CCC,–,3.15,-126,8,–,–
O=P(OCCCl)(OCCCl)OCCCl,–,-1.21,-35,330,not readily biodegradable,–
C=C[C@H]1CNCC[C@H]1CCC(=O)c1ccnc2ccc(OC)cc12,–,–,60,–,–,–
C=C[C@H]1C[N@@]2CC[C@H]1C[C@H]2[C@H](O)c1ccnc2ccc(O)cc12,–,–,202,–,–,–
CN1C(=O)C(=O)c2ccccc21,–,–,132,–,–,–
CN(C)c1ccc(/N=N/c2ccccc2C(=O)O)cc1,–,–,183,–,–,–
Cl.N=C(N)SCc1ccccc1,–,–,173,–,–,–
COc1ccc(C=O)cc1O,–,–,114,–,–,–
C=C(C)COC,–,–,–,68,–,–
CC(C)(C)OOC(C)(C)c1ccc(C(C)(C)OOC(C)(C)C)cc1,–,–,–,–,not readily biodegradable,–

# Same assay, conditions: fish
SMILES,log10 BCF,log10 biotransformation half-life (days)
Brc1ccc(Oc2ccc(Br)c(Br)c2)cc1Br,6.29,–
CC(Cl)(Cl)C(=O)[O][Na],0.86,–
CC(Cl)CCl (stereo not drawn),0.85,-1.06
ClCBr,0.6,-0.74
c1ccc(C2CCCC(C3CCCCC3)C2)cc1 (stereo not drawn),–,0.45
Clc1ccccc1-c1c(Cl)ccc(Cl)c1Cl,–,2.38
Oc1c(Cl)c(Cl)cc(Cl)c1Cl,2.15,-0.1
C=C[C@@]1(C)C=C2CC[C@@H]3[C@](C)(CCC[C@@]3(C)C(=O)O)[C@H]2CC1,1.92,–
ClC1=C(Cl)C2(Cl)C=CC1(Cl)C2(Cl)Cl,3.81,–
CCC(C)c1ccccc1OC(=O)NC (stereo not drawn),1.41,-0.52
O=P(OCCCl)(OCCCl)OCCCl,0.11,-0.66

# Source: the OPERA property sets (Mansouri et al. 2018)
